We go through one compound from patent US20120265121A1, “PHTHALOCYANINE-BASED ANTIFUNGAL AGENTS” (CASE WESTERN RESERVE UNIVERSITY, priority 2011, published 2012).

One assay has as its system T. rubrum. Put plainly: Turbidity growth assay of microconidia after Pc 4-PDT. It counts as cell-based, Trichophyton rubrum. As to conditions: Pc 4 up to 2 μM, 2.0 J/cm^2. Here is the method: Terbinafine sensitive (23013) and resistant (MRL666) strains of T. rubrum were grown onto Sabouraud potato agar plate for at least 24 hours at 28° C. Microconidia were separated from most of the hyphae form before treating with Pc 4-PDT.

Assay [1] relates to C. albicans (strain SC-5134). Put plainly: Chromatin condensation by confocal microscopy. It counts as cell-based, Candida albicans. The note with it: highest dose of Pc 4-PDT or peroxide, 24 hr after treatment. The procedure: Confocal Microscopy: To investigate the uptake and localization of Pc 4, cells in standard growth medium plus 10% Fetal Bovine Serum (FBS) were loaded with 0.2 μM Pc 4 and incubated for 16 to 18 hr. Thirty minutes prior to imaging Pc 4, 50 nM MitoTracker Red (Invitrogen, Carlsbad, Calif., USA) or 50 μg/mL AlexaFluor 488-conjugated Concanavalin (Con) A (Invitrogen, Carlsbad, Calif., USA) and/or 10 μg/mL Hoechst 33342 (Invitrogen, Carlsbad, Calif., USA) was loaded onto cells. Five to 10 μL of stained cells were placed on a slide with a glass coverslip and all images acquired using an UltraVIEW VoX spinning disk confocal system (PerkinElmer, Waltham, Mass., USA), which was mounted on a Leica DMI6000B microscope (Leica Microsystems, Inc., Bannockburn, Ill., USA) equipped with a HCX PL APO 100×/1.4 oil immersion objective. Confocal images of Pc 4 fluorescence, MitoTracker Red, ConA (or FITC-labeled Annexin V) and Hoechst 33342 were collected using solid-state diode lasers, with 640-nm, 561-nm, 488-nm and 405-nm excitation light, respectively, and with appropriate emission filters.

As to `CN(C)CCC[Si](C)(C)O[Si]1(O)n2c3c4ccccc4c2N=C2N=C(N=c4c5ccccc5c(n41)=NC1=NC(=N3)c3ccccc31)c1ccccc12` (stereo not drawn) [Pc 4, HOSiPcOSi(CH3)2(CH2)3N(CH3)2], the growth of microconidia entry in the assay on T. rubrum (terbinafine resistant strain MRL666) and in the assay with T. rubrum (terbinafine sensitive strain 23013) was “inhibited by Pc 4-PDT in a dose response fashion” each time. Further, the chromatin condensation entry in assay [1] is “detected”.
